Experimental data: patent publication US11260083B2, “Compositions and methods for treating and preventing graft versus host disease” (The Regents of the University of Michigan, priority 2016, dated 2022)

Experiments:
primary C57BL/6J IECs = test: CTL assay: allogeneic CD8+ T cell killing of IECs; type: cell-based, mouse; conditions: butyrate pre-treated overnight, vs control
Experimental: CD8+ T cells were isolated from Balb/c (H-2d) mice using anti-CD8 microbeads and LS columns (Miltenyi Biotec) following the manufacturer's instructions. CD8+ T cells were primed in the presence of irradiated (30 Gy) C57BL/6J (H-2b) splenocytes for 6 days prior to culture with primary IECs for 6 h and 16 h. Primary C57BL/6J IECs were harvested and incubated overnight in the presence or absence of butyrate 1 mM in gelatin coated (Cell Biologics Inc.; Chicago, Ill.) 100 mm-culture dishes (Fisher Scientific).
The potential mechanisms that contribute to butyrate-induced protection from severe GVHD were explored. Because (a) butyrate is decreased in IECs, (b) administration of butyrate mitigated GI GVHD independent of Treg cells, but (c) improved junction integrity, it was explored whether butyrate had direct effects on protecting IECs from allo-T cell mediated damage and conditioning. IECs were treated ex vivo with vehicle or butyrate for 24 hours irradiation (6 Gy) or no-irradition, followed by 24 hours of additional incubation with butyrate was performed. […] The ability of butyrate-treated IECs to withstand damage mediated by alloreactive T cells was determined by isolating and culturing primary IECs with butyrate or vehicle control, overnight. […] Because butyrate is a primary energy source for IECs 1-13, it was next determined whether butyrate enhances survival and growth of IECs in vitro. […]

intestinal organoids = test: Intestinal organoid culture with butyrate; type: cell-based, mouse
Experimental: The potential mechanisms that contribute to butyrate-induced protection from severe GVHD were explored. Because (a) butyrate is decreased in IECs, (b) administration of butyrate mitigated GI GVHD independent of Treg cells, but (c) improved junction integrity, it was explored whether butyrate had direct effects on protecting IECs from allo-T cell mediated damage and conditioning. IECs were treated ex vivo with vehicle or butyrate for 24 hours irradiation (6 Gy) or no-irradition, followed by 24 hours of additional incubation with butyrate was performed. […] The ability of butyrate-treated IECs to withstand damage mediated by alloreactive T cells was determined by isolating and culturing primary IECs with butyrate or vehicle control, overnight. The pre-treated IECs were next co-cultured with primed allogeneic CD8+ T cells, in the absence of butyrate. […] Because butyrate is a primary energy source for IECs 1-13, it was next determined whether butyrate enhances survival and growth of IECs in vitro. To this end, intestinal organoids were cultured in the presence or absence of butyrate. […] Next, the impact of butyrate on IEC junctional function in the organoid cultures was confirmed by determining the mRNA expression of claudins (FIG. 5E).

[1] = tested on: donor T cells, Treg cells and macrophages in the intestine; test: Flow cytometry of intestinal cellular contents after allo-BMT; type: in vivo, mouse
From the text: To analyze immunophenotype surface markers, lymphocytes contained in the IEC fraction or spleen were harvested, stained using recommended dilutions indicated by manufacturer product sheets and gated on CD4-conjugated PerCP/Cy5.5 (Clone: GK1.5) or CD8-conjugated APC (Clone: 53-6.7) and configurations of the following per mouse in duplicate: CD69-PE (Clone: H1.2F3), CD62L-PE (Clone: MEL-14), CD25-PE (Clone: 3C7), CD44-PerCP/Cy5.5 (Clone: IM7), CD44-APC (Clone: IM7), FoxP3-APC (Clone: FJK-16s). Stained cells were then analyzed with an Accuri C6 Flow Cytometer (BD Biosciences). IECs were stained with CD326-conjugated APC (Clone: G8.8) and DAPI and sorted to >98% purity using a FACSAria III (BD Biosciences) gating on live cells.
The total numbers of CD45.1+ cells recovered from the intestinal lamina propria were not different between vehicle- and butyrate-treated allo-BMT recipients. By contrast, intestinal infiltration of donor CD4+ and CD8+ T cells and activated T cells (CD69+ or CD44hi) was decreased in animals that received local intragastric butyrate administration (FIG. 4a). However, the ratio of donor Treg cells to effector T cells was not different in the intestines of these animals (FIG. 4b). […] However, no difference in the total number of donor macrophages in the intestine of allogenenic recipients that were treated with either vehicle or butyrate was observed (FIG. 4c).

[2] = tested on: allogeneic (C57BL/6J→BALB/c) BMT recipients; test: MHC-mismatched allo-BMT GVHD model with intragastric butyrate; type: in vivo, mouse
Experimental: BMTs were performed as previously described (Reddy, P. et al. A crucial role for antigen-presenting cells and alloantigen expression in graft-versus-leukemia responses. Nat. Med. 11, 1244-1249 (2005); 15). Briefly, syngeneic (BALB/c→BALC/c or C57BL/6J→C57BL/6J) and allogeneic (C57BL/6J→BALB/c or C3H.sw→C57BL/6J) recipients received lethal irradiation. On day −1, BALB/c recipients received a total of 800 cGy of irradiation (split dose separated by 3 hours) and B6 animals received a single dose of 1000 cGy. Donor splenic CD90.2+ T cells were magnetically separated using an autoMACs (Miltenyi Biotec; Bergisch Gladbach, Germany) and 0.5×10^6 to 2.5×10^6 T cells were transferred to BALB/c and C57BL/6J recipients. 5×10^6 donor whole or TCD bone marrow was transferred to all recipients. Survival was monitored daily and the recipient body weight and GVHD clinical scores were determined weekly, as described previously42. Histopathologic analysis of the gastrointestinal (GI) tract was performed as described (Reddy, P. et al. A crucial role for antigen-presenting cells and alloantigen expression in graft-versus-leukemia responses. Nat. Med. 11, 1244-1249 (2005)). Animals received vehicle (sterile PBS, 0.0004 g Na+ per dose) or sodium butyrate (10 mg/kg, 0.00004 g Na+ per dose) by flexible 20G-1.5″ intragastric gavage needle daily for 1 week, then every other day thereafter.
Systemic administration of HDACi decreases acute GVHD (Reddy, P. et al. Histone deacetylase inhibitor suberoylanilide hydroxamic acid reduces acute graft-versus-host disease and preserves graft-versus-leukemia effect. Proc Natl Acad Sci USA 101, 3921-3926 (2004); Reddy, P. et al. Histone deacetylase inhibition modulates indoleamine 2,3-dioxygenasedependent DC functions and regulates experimental graft-versus-host disease in mice. J. Clin. Invest. 118, 2562-2573 (2008); Sun, Y. et al. Cutting edge: Negative regulation of dendritic cells through acetylation of the nonhistone protein STAT-3. J Immunol 182, 5899-5903 (2009)). It was therefore determined if increasing local levels of endogenous HDACi, butyrate, would impact GVHD severity. Again using the C57BL/6J into Balb/c model, vehicle control or butyrate was administered via daily intragastric gavage for one week, followed by administration every other day for the remainder of the experiment. […] Next, to further evaluate the magnitude of the butyrate-induced protective effect, GVHD mortality was determined utilizing the MHC disparate B6 into BALB/c model.

[3] = intragastric butyrate daily 1 week then every other day, vs vehicle

CCCC(=O)[O-].[Na+] [butyrate, sodium butyrate]
IECs succumbing to CD8+ T cell killing (primary C57BL/6J IECs; 6 hours co-culture): Fewer butyrate pre-treated IECs succumbed | IECs succumbing to CD8+ T cell killing (primary C57BL/6J IECs; 16 hours co-culture): Fewer butyrate pre-treated IECs succumbed | organoid size (intestinal organoids; culture in the presence of butyrate): significantly increased | mRNA expression of claudins (Cldn1, Cldn5, Cldn6, Cldn10, Cldn11, Cldn13, Cldn14, Cldn17, Cldn18) (intestinal organoids; organoids cultured with butyrate): significantly increased | ratio of donor Treg cells to effector T cells in the intestines ([1]; 21 days after allo-BMT): not different | intestinal infiltration of donor CD4+ and CD8+ T cells and activated T cells (CD69+ or CD44hi) ([1]; 21 days after allo-BMT, intragastric butyrate): decreased | total numbers of CD45.1+ cells recovered from the intestinal lamina propria ([1]; 21 days after allo-BMT, vehicle vs butyrate): not different | total number of donor macrophages in the intestine ([1]; allogeneic recipients, vehicle vs butyrate): no difference | histological scores in the intestines ([2]; 21 days following BMT, major MHC mismatch model): decreased histological scores | GVHD mortality / survival ([2]; B6 into BALB/c, higher doses of T cells): significant GVHD survival benefit | GVHD clinical scores [2, 3]: decreased | survival [2, 3]: increased survival | weight loss [2, 3]: decreased weight loss
